Laboratory results from patent US20130116219A1, “ANTIMICROBIAL CARBOLINE COMPOUNDS” (ALCON RESEARCH, LTD., priority 2011, published 2013).
≈ marks a conversion by molar mass, not a printed value.

How the values were obtained:
[1] = tested on: Ad5; assay: Ad5 genome replication assay (cell-based QPCR) in A549 cells; conditions: Human adenovirus sp., A549, 72 h, read-out: Ad5 qPCR EC50 (μM)
Experimental: Compounds of the present invention were tested for potency against Ad5 in an Ad5 genome replication assay, a cell-based QPCR assay of Ad5 genome replication in A549 cells, a human lung carcinoma cell line. Serotype of human Ad5, used in this replication assay can also replicate in a NZW rabbit model of adenoviral ocular keratitis.
EC50 values (μM) for inhibition of adenoviral replication were determined by QPCR. Briefly, 10,000 cultured A549 cells were inoculated with 25,000 pfu/well for 3 hrs in 2% FBS F12-K A549 culture media. Following inoculation, A549 cells were treated with log unit dilutions of compound of Formula I (˜10 μM thru˜10 pM) in 10% FBS F12-K culture media with 0.3% DMSO for an additional 3 days. Cell viability was assessed with Alamar Blue (10 μl/well for 2 hrs; fluorescence Ex353; Em595 nm). Plates were washed 3 times with 125 μl PBS, cell lysates were prepared for QPCR analysis using Cells to SNP kit (Life Technologies). Ad5 genome levels per cell were determined with RNaseP and Ad5 hexon Taqman Assays (Life Technologies). EC50, the concentration that inhibited Ad5 genome replication formation by 50%, was estimated from plots of Ad5 genomes/cell vs. compound concentration.

[2] = tested on: Ad3; assay: Plaque reduction assay in A549 cells, Ad3; format: cell-based; conditions: unidentified adenovirus, 168 h, approximately 7 d, read-out: Adenovirus Serotype EC50 (μg/mL) Ad3
Experimental: (§1) Compounds of the present invention were tested for potency against AdV serotypes Ad3, Ad4, Ad5, Ad7a, Ad8, Ad19, and Ad37 in a plaque reduction assay, a cell-based assay of AdV replication. Ad8, Ad19, and Ad37 are the serotypes most commonly associated with epidemic keratoconjunctivitis (EKC). Ad3, Ad4, and Ad7a are serotypes most commonly associated with follicular conjunctivitis and serotype Ad5 can replicate in the NZW rabbit model of adenoviral ocular keratitis. Ad3, Ad4, Ad5, Ad7a, Ad8, and Ad19 were recovered at the Charles T. Campbell Ophthalmic Microbiology Laboratory from patients presenting with typical adenoviral ocular disease. No clinical isolates of Ad37 were available, so the ATCC (American Type Culture Collection, Manassas, Va.) reference strain of Ad37 was used.
(§2) EC50 values (μg/ml) for inhibition of adenoviral replication were determined by plaque reduction assay. Briefly, cultured A549 cells were inoculated with approximately 100 pfu of the indicated adenovirus serotype. Inoculated cells were overlaid with methylcellulose medium containing Compound 2 at 100, 10, 1, 0.1, 0.01, and 0.001 μg/ml, and incubated at 37° C./5% CO2 for approximately 7 d. Plates were stained with gentian violet, and plaques were counted in a 25× dissecting microscope. IC50, the concentration that inhibited plaque formation by 50%, was estimated from plots of mean plaque count vs. concentration.

[3] = tested on: Ad4; assay: Plaque reduction assay in A549 cells, Ad4; format: cell-based; conditions: unidentified adenovirus, 168 h, approximately 7 d, read-out: Adenovirus Serotype EC50 (μg/mL) Ad4
Experimental: as §1, §2

[4] = tested on: Ad19; assay: Plaque reduction assay in A549 cells, Ad19; format: cell-based; conditions: unidentified adenovirus, 168 h, approximately 7 d, read-out: Adenovirus Serotype EC50 (μg/mL) Ad19
Experimental: as §1, §2

[5] = tested on: Ad8; assay: Plaque reduction assay in A549 cells, Ad8; format: cell-based; conditions: unidentified adenovirus, A549, 168 h, read-out: Adenovirus Serotype EC50 (μg/mL) Ad8
Experimental: as §1, §2

[6] = tested on: Ad37; assay: Plaque reduction assay in A549 cells, Ad37; format: cell-based; conditions: unidentified adenovirus, 168 h, approximately 7 d, ATCC reference strain, read-out: Adenovirus Serotype EC50 (μg/mL) Ad37
Experimental: as §1, §2

[7] = tested on: Ad7a; assay: Plaque reduction assay in A549 cells, Ad7a; format: cell-based; conditions: unidentified adenovirus, 168 h, approximately 7 d, read-out: Adenovirus Serotype EC50 (μg/mL) Ad7a
Experimental: as §1, §2

[8] = tested on: Ad5; assay: Plaque reduction assay in A549 cells, Ad5; format: cell-based; conditions: unidentified adenovirus, A549, 168 h, read-out: Adenovirus Serotype EC50 (μg/mL) Ad5
Experimental: as §1, §2

[9] = tested on: human papillomavirus (HPV); conditions: Harvey et al., Antiviral Res. 82:1-11, 2009; read-out: EC50, inhibition of replication of human papillomavirus (HPV); cited from earlier work
[10] = tested on: AdV serotype 5 (Ad5); conditions: Harvey et al., Antiviral Res. 82:1-11, 2009; read-out: EC50, inhibition of replication of AdV serotype 5 (Ad5); cited from earlier work
[11] = tested on: Epstein-Barr virus (EBV); conditions: Harvey et al., Antiviral Res. 82:1-11, 2009; read-out: EC50, inhibition of replication of Epstein-Barr virus (EBV); cited from earlier work
[12] = tested on: polyoma virus SV40; conditions: Harvey et al., Antiviral Res. 82:1-11, 2009; read-out: EC50, inhibition of replication of polyoma virus SV40; cited from earlier work

Row | SMILES | EC50 [1] [µM] | EC50 [2] [µg/mL] | EC50 [3] [µg/mL] | EC50 [4] [µg/mL] | EC50 [5] [µg/mL] | EC50 [6] [µg/mL] | EC50 [7] [µg/mL] | EC50 [8] [µg/mL] | EC50 [9] [nM] | EC50 [10] [nM] | EC50 [11] [nM] | EC50 [12] [nM]
1 | CC(C)C[C@H]1c2[nH]c3ccc(Cl)cc3c2CCN1C(=O)CCN1CCC(F)(F)CC1 [Compound 6, (S)-1-(6-chloro-1-isobutyl-3,4-dihydro-1H-pyrido[3,4-b]indol-2(9H)-yl)-3-(4,4-difluoropiperidin-1-yl)propan-1-one] | < 0.1 | < 0.1 | 0.1 to 1 (≈ 0.228 to 2.28 µM) | < 0.1 | < 0.1 | < 0.1 | < 0.1 | < 0.1 |  |  |  | 
2 | CC(C)C[C@H]1c2[nH]c3ccc(Cl)cc3c2CCN1C(=O)CCN1CC[C@H](F)C1 [Compound 35, 1-((S)-6-chloro-1-isobutyl-3,4-dihydro-1H-pyrido[3,4-b]indol-2(9H)-yl)-3-((S)-3-fluoropyrrolidin-1-yl)propan-1-one] | 0.1 to 1 | 0.1 to 1 (≈ 0.246 to 2.46 µM) | > 1 | 0.1 to 1 (≈ 0.246 to 2.46 µM) | 0.1 to 1 (≈ 0.246 to 2.46 µM) | 0.1 to 1 (≈ 0.246 to 2.46 µM) | 0.1 to 1 (≈ 0.246 to 2.46 µM) | 0.1 to 1 (≈ 0.246 to 2.46 µM) |  |  |  | 
3 | CC(C)C[C@H]1c2[nH]c3ccc(Cl)cc3c2CCN1C(=O)CCC1CCCCC1 [Compound 43, (S)-1-(6-chloro-1-isobutyl-3,4-dihydro-1H-pyrido[3,4-b]indol-2(9H)-yl)-3-cyclohexylpropan-1-one] | < 0.1 | 0.1 to 1 (≈ 0.249 to 2.49 µM) | 0.1 to 1 (≈ 0.249 to 2.49 µM) | < 0.1 | < 0.1 | < 0.1 | < 0.1 | < 0.1 |  |  |  | 
4 | CC(C)C[C@H]1c2[nH]c3ccc(Cl)cc3c2CCN1C(=O)C1CN(CCC(F)(F)F)C1 [Compound 47, (S)-(6-chloro-1-isobutyl-3,4-dihydro-1H-pyrido[3,4-b]indol-2(9H)-yl)(1-(3,3,3-trifluoropropyl)azetidin-3-yl)methanone] | 0.1 to 1 | 0.1 to 1 (≈ 0.226 to 2.26 µM) | 0.1 to 1 (≈ 0.226 to 2.26 µM) | 0.1 to 1 (≈ 0.226 to 2.26 µM) | 0.1 to 1 (≈ 0.226 to 2.26 µM) | 0.1 to 1 (≈ 0.226 to 2.26 µM) | 0.1 to 1 (≈ 0.226 to 2.26 µM) | 0.1 to 1 (≈ 0.226 to 2.26 µM) |  |  |  | 
5 | CC(C)C[C@H]1c2[nH]c3ccc(Cl)cc3c2CCN1C(=O)CCN1CCN(CC(F)F)CC1 [Compound 73, (S)-1-(6-chloro-1-isobutyl-3,4-dihydro-1H-pyrido[3,4-b]indol-2(9H)-yl)-3-(4-(2,2-difluoroethyl)piperazin-1-yl)propan-1-one] | 0.1 to 1 | 0.1 to 1 (≈ 0.214 to 2.14 µM) | 0.1 to 1 (≈ 0.214 to 2.14 µM) | > 1 | 0.1 to 1 (≈ 0.214 to 2.14 µM) | > 1 | 0.1 to 1 (≈ 0.214 to 2.14 µM) | 0.1 to 1 (≈ 0.214 to 2.14 µM) |  |  |  | 
6 | CC(C)C[C@H]1c2[nH]c3ccc(Cl)cc3c2CCN1C(=O)CNC1CC1 [Compound 91, (S)-1-(6-chloro-1-isobutyl-3,4-dihydro-1H-pyrido[3,4-b]indol-2(9H)-yl)-2-(cyclopropylamino)ethanone] | < 0.1 | 0.1 to 1 (≈ 0.278 to 2.78 µM) | 0.1 to 1 (≈ 0.278 to 2.78 µM) | 0.1 to 1 (≈ 0.278 to 2.78 µM) | 0.1 to 1 (≈ 0.278 to 2.78 µM) | 0.1 to 1 (≈ 0.278 to 2.78 µM) | 0.1 to 1 (≈ 0.278 to 2.78 µM) | < 0.1 |  |  |  | 
7 | CC(C)C[C@H]1c2[nH]c3ccc(Cl)cc3c2CCN1C(=O)C1CN(C2CC2)C1 [Compound 92, (S)-(6-chloro-1-isobutyl-3,4-dihydro-1H-pyrido[3,4-b]indol-2(9H)-yl)(1-cyclopropylazetidin-3-yl)methanone] | 0.1 to 1 | > 1 | > 1 | 0.1 to 1 (≈ 0.259 to 2.59 µM) | > 1 | 0.1 to 1 (≈ 0.259 to 2.59 µM) | 0.1 to 1 (≈ 0.259 to 2.59 µM) | 0.1 to 1 (≈ 0.259 to 2.59 µM) |  |  |  | 
8 | CC(C)C[C@H]1c2[nH]c3ccc(Cl)cc3c2CCN1C(=O)C1CCN(C2CC2)CC1 [Compound 93, (S)-(6-chloro-1-isobutyl-3,4-dihydro-1H-pyrido[3,4-b]indol-2(9H)-yl)(1-cyclopropylpiperidin-4-yl)methanone] | 0.1 to 1 | 0.1 to 1 (≈ 0.242 to 2.42 µM) | 0.1 to 1 (≈ 0.242 to 2.42 µM) | 0.1 to 1 (≈ 0.242 to 2.42 µM) | 0.1 to 1 (≈ 0.242 to 2.42 µM) | 0.1 to 1 (≈ 0.242 to 2.42 µM) | 0.1 to 1 (≈ 0.242 to 2.42 µM) | 0.1 to 1 (≈ 0.242 to 2.42 µM) |  |  |  | 
9 | CC(C)C[C@H]1c2[nH]c3ccc(Br)cc3c2CCN1C(=O)C1CCN(C2CC2)CC1 [Compound 97, (S)-(6-bromo-1-isobutyl-3,4-dihydro-1H-pyrido[3,4-b]indol-2(9H)-yl)(1-cyclopropylpiperidin-4-yl)methanone] | < 0.1 | 0.1 to 1 (≈ 0.218 to 2.18 µM) | > 1 | 0.1 to 1 (≈ 0.218 to 2.18 µM) | < 0.1 | 0.1 to 1 (≈ 0.218 to 2.18 µM) | 0.1 to 1 (≈ 0.218 to 2.18 µM) | < 0.1 |  |  |  | 
10 | CC(C)C[C@H]1c2[nH]c3ccc(Cl)cc3c2CCN1C(=O)CNCCC(F)(F)F [Compound 108, (S)-1-(6-chloro-1-isobutyl-3,4-dihydro-1H-pyrido[3,4-b]indol-2(9H)-yl)-2-(3,3,3-trifluoropropylamino)ethanone] | < 0.1 |  |  |  |  |  |  |  |  |  |  | 
11 | CC(C)CC1c2[nH]c3ccc(Cl)cc3c2CCN1CCCc1ccccc1 (stereo not shown) [Compound 109] | 0.1 to 1 |  |  |  |  |  |  |  |  |  |  | 
12 | CC(C)C[C@H]1c2[nH]c3ccc(Cl)cc3c2CCN1CCN1CCC(F)(F)CC1 [Compound 110, (S)-6-chloro-2-(2-(4,4-difluoropiperidin-1-yl)ethyl)-1-isobutyl-2,3,4,9-tetrahydro-1H-pyrido[3,4-b]indole] | 0.1 to 1 |  |  |  |  |  |  |  |  |  |  | 
13 | O=C(N[C@@H]1CCCc2c1[nH]c1ccc(Cl)cc21)c1ccccn1 [GSK-983] |  |  |  |  |  |  |  |  | 5 to 20 | 5 to 20 | 5 to 20 | 5 to 20
